Tests used:
Staphylococcus aureus = assay: MIC assay; type: cell-based; conditions: for NP101 MIC: Staph aureus isolate NP101; for NP102 MIC: Staph aureus isolate NP102; for NP103 MIC: Staph aureus isolate NP103
[1] = system: Staphylococcus epidermidis; assay: MIC assay; type: cell-based
Streptococcus pyogenes = assay: MIC assay; type: cell-based
Streptococcus pneumoniae = assay: MIC assay; type: cell-based; conditions: solutions in 0.1 M lactate buffer pH 4.0
Pseudomonas aeruginosa = assay: MIC assay; type: cell-based; conditions: for NP212 MIC: P. aeruginosa isolate NP212; for NP213 MIC: P. aeruginosa isolate NP213; for NP214 MIC: P. aeruginosa isolate NP 214
Burkholderia multivorans = assay: MIC assay; type: cell-based
Burkholderia dolosa = assay: MIC assay; type: cell-based
Citrobacter freundii = assay: MIC assay; type: cell-based; conditions: C. freundii isolate NP410
Enterobacter cloacae = assay: MIC assay; type: cell-based; conditions: Enterobacter cloacae
Klebsiella pneumoniae = assay: MIC assay; type: cell-based
Proteus mirabilis = assay: MIC assay; type: cell-based; conditions: Prot. mirabilis isolate NP405
Serratia marcescens = assay: MIC assay; type: cell-based
Escherichia coli = assay: MIC assay; type: cell-based
Staph. aureus = assay: Minimal bactericidal concentration (MBC) assay; type: cell-based, Staphylococcus aureus
Protocol: (§1) Minimal bactericidal concentration (MBC) assay—Overnight-grown MIC plates, prepared as described in Example 16, were evaluated to determine the MIC. Culture was then sampled from wells at and near the MIC using sterile inoculating loops, and transferred to fresh MHA plates to determine if viable bacteria remained. […] The MBC was determined as the well in the MIC plate which contained the lowest concentration of silver yielding no bacterial growth on the MHA plate.

Ps. aeruginosa = assay: Minimal bactericidal concentration (MBC) assay; type: cell-based, Pseudomonas aeruginosa
Protocol: as §1

Strep. pyogenes = assay: Minimal bactericidal concentration (MBC) assay; type: cell-based, Streptococcus pyogenes
Protocol: as §1

K. pneumoniae = assay: Minimal bactericidal concentration (MBC) assay; type: cell-based, Klebsiella pneumoniae
Protocol: as §1

Ser. marcescens = assay: Minimal bactericidal concentration (MBC) assay; type: cell-based, Serratia marcescens
Protocol: as §1

Prot. mirabilis = assay: Minimal bactericidal concentration (MBC) assay; type: cell-based, Proteus mirabilis; conditions: Prot. mirabilis isolate NP405
Protocol: as §1

C. freundii = assay: Minimal bactericidal concentration (MBC) assay; type: cell-based, Citrobacter freundii; conditions: C. freundii isolate NP410
Protocol: as §1

B. multivorans = assay: Minimal bactericidal concentration (MBC) assay; type: cell-based, Burkholderia multivorans
Protocol: as §1

B dolosa = assay: Minimal bactericidal concentration (MBC) assay; type: cell-based, Burkholderia dolosa
Protocol: as §1

Staph epidermidis = assay: Minimal bactericidal concentration (MBC) assay; type: cell-based, Staphylococcus epidermidis
Protocol: as §1

[2] = formulation type Water/Lecithin
[3] = Staph. aureus ATCC type strain 6538
[4] = Staph. aureus ATCC type strain 700699
[5] = Staph epidermidis ATCC type strain 12228
[6] = Staph epidermidis isolate NP136
[7] = Ps. aeruginosa ATCC type strain 27317
[8] = K. pneumoniae isolate NP403 (first listing)
[9] = K. pneumoniae isolate NP403 (second listing)
[10] = Ser. marcescens isolate NP402 (first listing)
[11] = Ser. marcescens isolate NP402 (second listing)
[12] = Ser. marcescens isolate NP408 (first listing)
[13] = Ser. marcescens isolate NP408 (second listing)

O=[N+]([O-])[O-].[Ag+] [AgNO3, silver nitrate]
MIC (Staphylococcus aureus; S. aureus (ATCC), solutions in 0.1 M lactate buffer pH 4.0): 11 µg/mL
MIC (Staphylococcus aureus; S. aureus (clin.), solutions in 0.1 M lactate buffer pH 4.0): 5 µg/mL
NP101 MIC (Staphylococcus aureus; formulation type Lactate): 9 ppm
NP101 MIC (Staphylococcus aureus; [2]): 11 ppm
NP101 MIC (Staphylococcus aureus; formulation type Water/PVA): 11 ppm
NP102 MIC (Staphylococcus aureus; formulation type Lactate): 9 ppm
NP102 MIC (Staphylococcus aureus; [2]): 11 ppm
NP102 MIC (Staphylococcus aureus; formulation type Water/PVA): 11 ppm
NP103 MIC (Staphylococcus aureus; formulation type Lactate): 9 ppm
NP103 MIC (Staphylococcus aureus; [2]): 11 ppm
NP103 MIC (Staphylococcus aureus; formulation type Water/PVA): 11 ppm
MIC (Staphylococcus aureus; [3]): 6 parts silver per million
MIC (Staphylococcus aureus; [4]): 3 parts silver per million
MIC (Staphylococcus aureus; Staph. aureus isolate NP101): 6 parts silver per million
MIC (Staphylococcus aureus; Staph. aureus isolate NP102): 6 parts silver per million
MIC (Staphylococcus aureus; Staph. aureus isolate NP103): 6 parts silver per million
MIC ([1]; S. epiderm (ATCC), solutions in 0.1 M lactate buffer pH 4.0): 3 µg/mL
MIC [1, 5]: 3 parts silver per million
MIC [1, 6]: 3 parts silver per million
MIC (Streptococcus pyogenes; S. pyog (clin. 303), solutions in 0.1 M lactate buffer pH 4.0): 3 µg/mL
MIC (Streptococcus pyogenes; S. pyog (clin. 304), solutions in 0.1 M lactate buffer pH 4.0): 5 µg/mL
MIC (Streptococcus pyogenes; Strep. pyogenes isolate NP303): 3 parts silver per million
MIC (Streptococcus pyogenes; Strep. pyogenes isolate NP304): 6 parts silver per million
MIC (Streptococcus pyogenes; Strep. pyogenes isolate NP306): 6 parts silver per million
MIC (Streptococcus pneumoniae; S. pneumo (clin 314)): 11 mg/L
MIC (Streptococcus pneumoniae; S. pneumo (clin 315)): 21 mg/L
MIC (Pseudomonas aeruginosa; P. aerug (ATCC), solutions in 0.1 M lactate buffer pH 4.0): 3 µg/mL
MIC (Pseudomonas aeruginosa; P. aerug. (clin.), solutions in 0.1 M lactate buffer pH 4.0): 3 µg/mL
NP212 MIC (Pseudomonas aeruginosa; formulation type Lactate): 2 ppm
NP212 MIC (Pseudomonas aeruginosa; [2]): 3 ppm
NP212 MIC (Pseudomonas aeruginosa; formulation type Water/PVA): 3 ppm
NP213 MIC (Pseudomonas aeruginosa; formulation type Lactate): 1 ppm
NP213 MIC (Pseudomonas aeruginosa; [2]): 1 ppm
NP213 MIC (Pseudomonas aeruginosa; formulation type Water/PVA): 1 ppm
NP214 MIC (Pseudomonas aeruginosa; formulation type Lactate): 1 ppm
NP214 MIC (Pseudomonas aeruginosa; [2]): 1 ppm
NP214 MIC (Pseudomonas aeruginosa; formulation type Water/PVA): 3 ppm
MIC (Pseudomonas aeruginosa; Ps. aeruginosa ATCC type strain 9027): 1 parts silver per million
MIC (Pseudomonas aeruginosa; [7]): 2 parts silver per million
MIC (Pseudomonas aeruginosa; Ps. aeruginosa isolate NP201): 1 parts silver per million
MIC (Pseudomonas aeruginosa; Ps. aeruginosa isolate NP204): 1 parts silver per million
MIC (Pseudomonas aeruginosa; Ps. aeruginosa isolate NP206): 1 parts silver per million
MIC (Burkholderia multivorans; B. multivorans isolate B1): 3 parts silver per million
MIC (Burkholderia multivorans; B. multivorans isolate B2): 3 parts silver per million
MIC (Burkholderia multivorans; B. multivorans isolate B4): 2 parts silver per million
MIC (Burkholderia dolosa; B dolosa isolate A3): 2 parts silver per million
MIC (Burkholderia dolosa; B dolosa isolate A4): 2 parts silver per million
MIC (Citrobacter freundii): 3 parts silver per million
MIC (Enterobacter cloacae; aerobic conditions (+)): 13 mg/L
MIC (Enterobacter cloacae; anaerobic conditions (Aerobic −)): 25 mg/L
MIC (Klebsiella pneumoniae; K. pneumoniae isolate NP401): 3 parts silver per million
MIC (Klebsiella pneumoniae; [8]): 6 parts silver per million
MIC (Klebsiella pneumoniae; [9]): 6 parts silver per million
MIC (Klebsiella pneumoniae; K. pneumoniae isolate NP406): 1 parts silver per million
MIC (Klebsiella pneumoniae; Klebsiella pneumoniae, aerobic conditions (+)): 3 µg/mL
MIC (Klebsiella pneumoniae; Klebsiella pneumoniae, anaerobic conditions (Aerobic −)): 3 µg/mL
MIC (Proteus mirabilis): 6 parts silver per million
MIC (Serratia marcescens; [10]): 6 parts silver per million
MIC (Serratia marcescens; [11]): 6 parts silver per million
MIC (Serratia marcescens; [12]): 6 parts silver per million
MIC (Serratia marcescens; [13]): 11 parts silver per million
MIC (Serratia marcescens; Serratia marcescens, aerobic conditions (+)): 6 µg/mL
MIC (Serratia marcescens; Serratia marcescens, anaerobic conditions (Aerobic −)): 13 µg/mL
MIC (Escherichia coli; E. coli (ATCC), solutions in 0.1 M lactate buffer pH 4.0): 3 µg/mL
MIC (Escherichia coli; E. coli ATCC type strain 8739): 0.4 parts silver per million
MIC (Escherichia coli; E. coli ATCC type strain 43745): 1 parts silver per million
MIC (Escherichia coli; E. coli isolate NP412): 1 parts silver per million
MBC (Staph. aureus; [3]): 6 parts silver per million
MBC (Staph. aureus; [4]): 6 parts silver per million
MBC (Staph. aureus; Staph. aureus isolate NP101): 11 parts silver per million
MBC (Staph. aureus; Staph. aureus isolate NP102): 6 parts silver per million
MBC (Staph. aureus; Staph. aureus isolate NP103): 6 parts silver per million
MBC (Ps. aeruginosa; [7]): 3 parts silver per million
MBC (Ps. aeruginosa; Ps. aeruginosa isolate NP201): 3 parts silver per million
MBC (Ps. aeruginosa; Ps. aeruginosa isolate NP204): 3 parts silver per million
MBC (Ps. aeruginosa; Ps. aeruginosa isolate NP206): 1 parts silver per million
MBC (Strep. pyogenes; Strep. pyogenes isolate NP303): 10 parts silver per million
MBC (Strep. pyogenes; Strep. pyogenes isolate NP304): 21 parts silver per million
MBC (Strep. pyogenes; Strep. pyogenes isolate NP306): 21 parts silver per million
MBC (K. pneumoniae; K. pneumoniae isolate NP401): 3 parts silver per million
MBC (K. pneumoniae; [8]): 6 parts silver per million
MBC (K. pneumoniae; [9]): 3 parts silver per million
MBC (K. pneumoniae; K. pneumoniae isolate NP406): 1 parts silver per million
MBC (Ser. marcescens; [10]): 6 parts silver per million
MBC (Ser. marcescens; [11]): 6 parts silver per million
MBC (Ser. marcescens; [12]): 6 parts silver per million
MBC (Ser. marcescens; [13]): 11 parts silver per million
MBC (Prot. mirabilis): 13 parts silver per million
MBC (C. freundii): 3 parts silver per million
MBC (B. multivorans; B. multivorans isolate B1): 3 parts silver per million
MBC (B. multivorans; B. multivorans isolate B2): 3 parts silver per million
MBC (B. multivorans; B. multivorans isolate B4): 3 parts silver per million
MBC (B dolosa; B dolosa isolate A3): 3 parts silver per million
MBC (B dolosa; B dolosa isolate A4): 2 parts silver per million
MBC (Staph epidermidis; [5]): 3 parts silver per million
MBC (Staph epidermidis; [6]): 3 parts silver per million
